{
  "source": "PubChem BioAssay AID1963875",
  "about": "(Molecular Pharmacology Branch, DTP, NCI, 2024)",
  "system": "KRAS-mutant PDC complex spheroid viability",
  "experiment": "Anticancer human tumor 186277-243-T-J2-PDC patient-derived colon adenocarcinoma cell line growth inhibition [KRAS2]",
  "conditions": "for viability, T/C: stronger effect = lower value",
  "source_text": "Multicellular complex tumor spheroid response to RAS pathway inhibitors in combination with a targeted agents in patient-derived cell lines with oncogenic KRAS variants from multiple cancer types\nA high-throughput screen of multi-cell type tumor spheroids was designed to identify active combinations of targeted small molecules and KRAS pathway inhibitors. Complex spheroids include a stromal component modeled by human endothelial cells (HUVEC) and fibroblasts modeled by human mesenchymal stem cells (MSCs). The concentration ranges selected for each drug and investigational agent were based upon clinically achievable concentrations if the clinical Cmax of the agent was known.\nCompounds. The drugs and investigational agents: BI-3406 (NSC825286), BAY-293 (NSC824723), batoprotafib (TNO155; NSC825523), sotorasib (AMG 510; NSC818433), MRTX1257 (NSC819558), elimusertib (BAY 1895344; NSC800525), molibresib (GSK525762; NSC774829), temuterkib (LY3214996; NSC803410), venetoclax (NSC766270), alisertib (NSC759677), olaparib (NSC753686), talazoparib (NSC767125), erdafitinib (NSC781556), ipatasertib (NSC767898), cabozantinib (NSC761068), nintedanib (NSC756659), abemaciclib (NSC768073), docetaxel (NSC628503), trametinib (NSC758246), and sapanisertib (NSC764658) were obtained from the National Cancer Institute (NCI) Developmental Therapeutics Program Chemical Repository. The FDA-approved anticancer drug set is available from the Developmental Therapeutics Program. […] The stock solutions were prepared in dimethyl sulfoxide (DMSO, Sigma-Aldrich, St. Louis, MO, cat. D2650) at 800-fold the tested concentration and stored at -70 degrees C prior to their use. All drugs and investigational agents were tested over a range starting from a high concentration at or near the clinical Cmax and decreasing in half-log increments. If the clinical Cmax for an agent had not been determined, the highest concentration tested was 10 microM.\nCell Culture. All cells were maintained in an incubator at 37 degrees C and 5% CO2 with 95% humidity. The PDC lines were cultured according to standard operating procedures established by the NCI PDMR (https://pdmr.cancer.gov/sops/default.htm). Briefly, all PDCs were thawed and cultured in Matrigel-coated flasks prepared with a working solution of 1X Ham's F-12 nutrient mix, without supplementation (Invitrogen, Waltham, MA, cat. 11765054), 100 U/mL penicillin-streptomycin (Invitrogen, cat. 15140122), and 2.5% Matrigel (Corning Inc., Corning, NY, cat. 354248) for the first three passages. All PDCs were cultured in complete DMEM/F-12 media containing advanced DMEM/F-12 (Invitrogen, cat. 12634028), 4.9% defined fetal bovine serum, heat inactivated (HyClone Laboratories Inc., Logan, UT, cat. SH30070.03HI), 389 ng/mL hydrocortisone (Sigma-Aldrich, cat. H4001), 9.7 ng/mL human EGF recombinant protein (Invitrogen, cat. PHG0313), 23.4 microg/mL adenine (Sigma-Aldrich, cat. A2786), 97.3 U/mL penicillin-streptomycin (Invitrogen, cat. 15140122), 1.9 mM L-glutamine (Invitrogen, cat. 25030081), and 9.7 microM Y-27632 dihydrochloride (Tocris Bioscience, Bristol, United Kingdom, cat. 1254). The PDCs were cultured in complete DMEM/F12 media without 9.7 microM Y-27632 dihydrochloride for at least two passages prior to the screen. The established cell line HOP-62 was cultured in RPMI 1640 medium, HEPES (Invitrogen, cat. 22400105) with 10% defined fetal bovine serum (HyClone Laboratories Inc., cat. SH30070.03) and 2 mM L-glutamine (Invitrogen, cat. 25030081). The pooled donor HUVEC were cultured in endothelial cell growth medium 2 (PromoCell, Heidelberg, Germany, cat. C-22011) and the hMSC were cultured in mesenchymal stem cell growth medium 2 (PromoCell, cat. C-28009). For all experiments, HUVEC and hMSC were used at passages </=5, while the malignant cell lines were used at passages </=15. […]",
  "note": "Where “and” joins values, the source holds several entries; their conditions need not be identical. Identical values can stand only once.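 Throughout, for viability, T/C: viability read after seven days of compound exposure; 100% = DMSO vehicle-treated spheroids so lower means less viable.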",
  "data": [
    {"compound": "CC(=O)Nc1cccc(-n2c(=O)n(C3CC3)c(=O)c3c(Nc4ccc(I)cc4F)n(C)c(=O)c(C)c32)c1", "values": [
      {"measurement": "viability, T/C", "setting": "compound 0.0001 µM", "value": "102% [middle of 5 runs]"},
      {"measurement": "viability, T/C", "setting": "compound 0.001 µM", "value": "21.2% [middle of 5 runs]"},
      {"measurement": "viability, T/C", "setting": "compound 0.00316 µM", "value": "9.7% [middle of 5 runs]"},
      {"measurement": "viability, T/C", "setting": "compound 0.01 µM", "value": "4.01% [middle of 5 runs]"},
      {"measurement": "viability, T/C", "setting": "compound 0.0316 µM", "value": "1.43% [middle of 5 runs]"},
      {"measurement": "IC50", "setting": "curve of compound", "value": "0.622 nM [middle of 5 runs]"}
    ]},
    {"compound": "CN(C)C/C=C/C(=O)Nc1cc2c(Nc3ccc(F)c(Cl)c3)ncnc2cc1O[C@H]1CCOC1", "values": [
      {"measurement": "viability, T/C", "setting": "compound 0.000316 µM", "value": "101% [middle of 5 runs]"},
      {"measurement": "viability, T/C", "setting": "compound 0.00316 µM", "value": "101% [middle of 5 runs]"},
      {"measurement": "viability, T/C", "setting": "compound 0.01 µM", "value": "108% [middle of 5 runs]"},
      {"measurement": "viability, T/C", "setting": "compound 0.0316 µM", "value": "120% (3×) and 114% and 105%"},
      {"measurement": "viability, T/C", "setting": "compound 0.1 µM", "value": "111% [middle of 5 runs]"},
      {"measurement": "IC50", "setting": "curve of compound", "value": "> 100", "unit": "nM"}
    ]},
    {"compound": "Cn1nccc1Nc1nccc(-c2cc3c(s2)C(C)(C)N(CCN2CCOCC2)C3=O)n1", "note": "+ C=CC(=O)N1CCN(c2nc(=O)n(-c3c(C)ccnc3C(C)C)c3nc(-c4c(O)cccc4F)c(F)cc23)C(C)C1", "values": [
      {"measurement": "IC50", "setting": "curve of first compound, second compound 0.1 µM", "value": 415, "unit": "nM"},
      {"measurement": "IC50", "setting": "curve of first compound, second compound 0.316 µM", "value": 507, "unit": "nM"},
      {"measurement": "IC50", "setting": "curve of first compound, second compound 1 µM", "value": 497, "unit": "nM"},
      {"measurement": "IC50", "setting": "curve of first compound, second compound 3.16 µM", "value": 289, "unit": "nM"},
      {"measurement": "IC50", "setting": "curve of first compound, second compound 10 µM", "value": 102, "unit": "nM"},
      {"measurement": "viability, T/C", "setting": "second compound 0.1 µM, first compound 0.0316 µM", "value": 101, "unit": "%"},
      {"measurement": "viability, T/C", "setting": "second compound 0.1 µM, first compound 0.1 µM", "value": 89.7, "unit": "%"},
      {"measurement": "viability, T/C", "setting": "second compound 0.1 µM, first compound 0.316 µM", "value": 62.6, "unit": "%"},
      {"measurement": "viability, T/C", "setting": "second compound 0.1 µM, first compound 1 µM", "value": 10.8, "unit": "%"},
      {"measurement": "viability, T/C", "setting": "second compound 0.1 µM, first compound 3.16 µM", "value": 5.84, "unit": "%"},
      {"measurement": "viability, T/C", "setting": "second compound 0.1 µM, first compound 10 µM", "value": 9.07, "unit": "%"},
      {"measurement": "viability, T/C", "setting": "second compound 0.316 µM, first compound 0.0316 µM", "value": 92.9, "unit": "%"},
      {"measurement": "viability, T/C", "setting": "second compound 0.316 µM, first compound 0.1 µM", "value": 91.9, "unit": "%"},
      {"measurement": "viability, T/C", "setting": "second compound 0.316 µM, first compound 0.316 µM", "value": 73.7, "unit": "%"},
      {"measurement": "viability, T/C", "setting": "second compound 0.316 µM, first compound 1 µM", "value": 15.9, "unit": "%"},
      {"measurement": "viability, T/C", "setting": "second compound 0.316 µM, first compound 3.16 µM", "value": 7.21, "unit": "%"},
      {"measurement": "viability, T/C", "setting": "second compound 0.316 µM, first compound 10 µM", "value": 9.45, "unit": "%"},
      {"measurement": "viability, T/C", "setting": "second compound 1 µM, first compound 0.0316 µM", "value": 97.5, "unit": "%"},
      {"measurement": "viability, T/C", "setting": "second compound 1 µM, first compound 0.1 µM", "value": 85.5, "unit": "%"},
      {"measurement": "viability, T/C", "setting": "second compound 1 µM, first compound 0.316 µM", "value": 74.2, "unit": "%"},
      {"measurement": "viability, T/C", "setting": "second compound 1 µM, first compound 1 µM", "value": 12.6, "unit": "%"},
      {"measurement": "viability, T/C", "setting": "second compound 1 µM, first compound 3.16 µM", "value": 8.16, "unit": "%"},
      {"measurement": "viability, T/C", "setting": "second compound 1 µM, first compound 10 µM", "value": 10.1, "unit": "%"},
      {"measurement": "viability, T/C", "setting": "second compound 3.16 µM, first compound 0.0316 µM", "value": 89.1, "unit": "%"},
      {"measurement": "viability, T/C", "setting": "second compound 3.16 µM, first compound 0.1 µM", "value": 83.5, "unit": "%"},
      {"measurement": "viability, T/C", "setting": "second compound 3.16 µM, first compound 0.316 µM", "value": 47.4, "unit": "%"},
      {"measurement": "viability, T/C", "setting": "second compound 3.16 µM, first compound 1 µM", "value": 9.35, "unit": "%"},
      {"measurement": "viability, T/C", "setting": "second compound 3.16 µM, first compound 3.16 µM", "value": 11.3, "unit": "%"},
      {"measurement": "viability, T/C", "setting": "second compound 3.16 µM, first compound 10 µM", "value": 9.1, "unit": "%"},
      {"measurement": "viability, T/C", "setting": "second compound 10 µM, first compound 0.0316 µM", "value": 70.3, "unit": "%"},
      {"measurement": "viability, T/C", "setting": "second compound 10 µM, first compound 0.1 µM", "value": 50.8, "unit": "%"},
      {"measurement": "viability, T/C", "setting": "second compound 10 µM, first compound 0.316 µM", "value": 12.8, "unit": "%"},
      {"measurement": "viability, T/C", "setting": "second compound 10 µM, first compound 1 µM", "value": 5.63, "unit": "%"},
      {"measurement": "viability, T/C", "setting": "second compound 10 µM, first compound 3.16 µM", "value": 2.98, "unit": "%"},
      {"measurement": "viability, T/C", "setting": "second compound 10 µM, first compound 10 µM", "value": 2.56, "unit": "%"}
    ]}
  ]
}
